Assays:
HIV-IIIb = experiment: Test A: Antiviral assay in MT4 Cells; format: cell-based, HIV-1; settings: Human immunodeficiency virus 1, 120 h; 2 μM drug concentration; MT4 cells infected with HIV-IIIb, 5 days; calculated from dose response curve; values normalized to 100% where greater than 100; read-out: % Inhibition at 2 μM (percent inhibition of virus-induced cell killing)
Procedure: (§1) For the antiviral assay, 40 μL of a concentration required to achieve a final effective 1× test concentration of 3-fold serially diluted compound in culture medium with 10% FBS was added to each well of a 384-well plate (10 concentrations) in quadruplicate. MT4 cells were next mixed with HIV-IIIb at an m.o.i of 0.003 for 1 hour, after which time 35 μL of virus/cell mixture (2000 cells) was immediately added to each well containing 40 μL of diluted compound. The plates were then incubated at 37° C. for 5 days. After 5 days of incubation, 25 μl of 2× concentrated CellTiter-Glo™ Reagent (catalog # G7571, Promega Biosciences, Inc., Madison, Wis.) was added to each well containing MT-4 cells. Cell lysis was carried out by incubating at room temperature for 10 min and then chemiluminescence was read. EC50 values were calculated as the compound concentration that caused a 50% decrease in luminescence signal, a measure of HIV-1 replication. Percent inhibition of virus-induced cell killing calculated from the dose response curve at 2 μM drug concentration is shown in the table below.

[1] = Test B: Cytotoxicity Assay; format: cell-based; settings: human, uninfected MT4 cells, same protocol as Test A
Procedure: as §1, with “below. Compound cytotoxicity and the corresponding CC50 values was determined using the same protocol as described in the antiviral assay (Test A) except that uninfected cells were used.” for “below.”

| SMILES | inhibition at 2 µM (HIV-IIIb) [%] | CC50 at 5 days [1] [µM] |
| --- | --- | --- |
| COc1ccc(N(C)C(=O)[C@H](Cc2cc(F)cc(F)c2)NC(=O)Cn2nc(C(F)(F)F)c3c2C(C)CCC3)cc1 (stereo partly drawn) [Compound 26, (2S)-3-(3,5-difluorophenyl)-N-(4-methoxyphenyl)-N-methyl-2-(2-(7-methyl-3-(trifluoromethyl)-4,5,6,7-tetrahydro-1H-indazol-1-yl)acetamido)propanamide] | 100 | 9.82 |
| COc1ccc(N(C)C(=O)[C@H](Cc2cc(F)cc(F)c2)NC(=O)Cn2nc(C(F)(F)F)c3c2CCC(=O)C3)cc1 [Compound 28, (S)-3-(3,5-difluorophenyl)-N-(4-methoxyphenyl)-N-methyl-2-(2-(5-oxo-3-(trifluoromethyl)-4,5,6,7-tetrahydro-1H-indazol-1-yl)acetamido)propanamide] | 76 | 37.2 |
| CN(C(=O)[C@H](Cc1cccs1)NC(=O)Cn1nc(C(F)(F)F)c2c1CCCC2)c1ccccc1 [Compound 8] | 95 | 25.6 |
| COc1ccc(N(C)C(=O)[C@H](Cc2cc(F)cc(F)c2)NC(=O)Cn2nc(C(F)(F)F)c3c2CCC(C)(O)C3)cc1 (stereo partly drawn) [Compound 29, (2S)-3-(3,5-difluorophenyl)-2-(2-(5-hydroxy-5-methyl-3-(trifluoromethyl)-4,5,6,7-tetrahydro-1H-indazol-1-yl)acetamido)-N-(4-methoxyphenyl)-N-methylpropanamide] | 82 | 32.1 |
| CN(C(=O)[C@H](Cc1ccccn1)NC(=O)Cn1nc(C(F)(F)F)c2c1CCCC2)c1ccccc1 [Compound 7] | 1 | > 53 |
| COc1ccc(N(C)C(=O)[C@H](Cc2cc(F)cc(F)c2)NC(=O)Cn2nc(C(F)(F)F)c3c2CC(C)CC3)cc1 (stereo partly drawn) [Compound 25, (2S)-3-(3,5-difluorophenyl)-N-(4-methoxyphenyl)-N-methyl-2-(2-(6-methyl-3-(trifluoromethyl)-4,5,6,7-tetrahydro-1H-indazol-1-yl)acetamido)propanamide] | 100 | 11.1 |
| CN(C(=O)[C@H](Cc1cc(F)cc(F)c1)NC(=O)Cn1c(N)nc2c1c(=O)[nH]c(=O)n2C)c1ccc(Cl)cc1 [Compound 32, (S)-2-(2-(8-amino-3-methyl-2,6-dioxo-2,3-dihydro-1H-purin-7(6)-yl)acetamido)-N-(4-chlorophenyl)-3-(3,5-difluorophenyl)-N-methylpropanamide] | 39 | > 53 |
| CN(C(=O)[C@H](Cc1cccc(C#N)c1)NC(=O)Cn1nc(C(F)(F)F)c2c1CCCC2)c1ccccc1 [Compound 15, (S)-3-(3-cyanophenyl)-N-methyl-N-phenyl-2-(2-(3-(trifluoromethyl)-4,5,6,7-tetrahydro-1H-indazol-1-yl)acetamido)propanamide] | 26 | 26.3 |
| CN(C(=O)[C@H](Cc1cscn1)NC(=O)Cn1nc(C(F)(F)F)c2c1CCCC2)c1ccccc1 [Compound 11, (S)—N-methyl-N-phenyl-3-(thiazol-4-yl)-2-(2-(3-(trifluoromethyl)-4,5,6,7-tetrahydro-1H-indazol-1-yl)acetamido)propanamide] | 21 | > 53 |
| CN(C(=O)[C@H](Cc1ccncc1)NC(=O)Cn1nc(C(F)(F)F)c2c1CCCC2)c1ccccc1 [Compound 5] | 0 | > 53 |
| CN(C(=O)[C@H](Cc1cccc(Br)c1)NC(=O)Cn1nc(C(F)(F)F)c2c1CCCC2)c1ccccc1 [Compound 19, (S)-3-(3-bromophenyl)-N-methyl-N-phenyl-2-(2-(3-(trifluoromethyl)-4,5,6,7-tetrahydro-1H-indazol-1-yl)acetamido)propanamide] | 27 | 17.3 |

Reference: patent US10202353B2, “Therapeutic compounds” (Gilead Sciences, Inc., priority 2014, dated 2019)
